Activity calls are given as the source filed them. The rule behind the calls is not given here.
Legend:
B16-F10 [1] = assay: Effect on acetylated alpha-tubulin expression level in mouse B16-F10 cells at 5 to 20 uM incubated for 24 hrs by Western blot analysis; assay type: functional, cell-based; settings: dose 5-20 µM
Histone deacetylase 4 = Histone deacetylase 4 (Homo sapiens, UniProt P56524); assay: Inhibition of recombinant HDAC4 (unknown origin) using Boc-Lys(trifluoroacetyl)-AMC as substrate preincubated for 1 hr followed by substrate addition and measured after 2 hrs by fluorescence based micro plate reader analysis
[2] = VRT (0 to infinity) in male Sprague-Dawley rat at 2 mg/kg, iv measured after 12 hrs by LC-MS/MS analysis; assay type: ADME, organism-based; settings: in vivo
B16-F10 [3] = assay: Inhibition of cell migration in mouse B16-F10 cells assessed as wound area at 5 uM incubated for 24 hrs by wound healing assay (reference value: 50.36 +/- 1.68 %); assay type: functional; set-up: scale not given: the % may be the effect or the level left
[4] = target: Programmed cell death 1 ligand 1 (Mus musculus) (UniProt Q9EP73); assay: Induction of PD-L1 degradation in mouse B16-F10 cells assessed as decrease in PD-L1 protein level at 2 uM measured after 24 hrs in presence of CA-074 by Western blot analysis; assay type: cell-based
Chain of Programmed cell death 1 ligand 1 (Mus musculus) (Q9EP73 whole entry): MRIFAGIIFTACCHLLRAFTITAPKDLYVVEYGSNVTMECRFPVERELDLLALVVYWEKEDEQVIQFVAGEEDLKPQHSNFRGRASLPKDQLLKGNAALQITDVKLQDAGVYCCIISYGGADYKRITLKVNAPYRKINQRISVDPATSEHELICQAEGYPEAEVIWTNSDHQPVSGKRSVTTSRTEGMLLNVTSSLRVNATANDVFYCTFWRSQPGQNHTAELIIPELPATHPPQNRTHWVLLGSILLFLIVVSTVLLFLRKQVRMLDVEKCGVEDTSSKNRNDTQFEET

4T1 [5] = assay: Downregulation of PARP1 expression in mouse 4T1 cells at 5 uM by DAPI staining based immunofluorescence analysis; assay type: functional, cell-based
4T1 [6] = assay: Antitumor activity against mouse 4T1 cells implanted in female BALB/c mouse model assessed as tumor growth inhibition administrated orally as once daily dose via gavage for 14 days relative to control; assay type: functional; settings: route po; time 14 day
[7] = Clast in male Sprague-Dawley rat at 2 mg/kg, iv measured after 12 hrs by LC-MS/MS analysis; assay type: ADME, organism-based; settings: in vivo, read-out: Clast
[8] = VRT (0 to infinity) in male Sprague-Dawley rat at 20 mg/kg, po measured after 12 hrs by LC-MS/MS analysis; assay type: ADME, organism-based; settings: in vivo
4T1 [9] = assay: Induction of DNA damage in mouse 4T1 cells assessed as increase in gamma-H2AX expression at 2 uM incubated for 24 hrs in presence of olaparib by Western blot analysis; assay type: functional, cell-based
Histone deacetylase 9 = Histone deacetylase 9 (Homo sapiens, UniProt Q9UKV0); assay: Inhibition of recombinant HDAC9 (unknown origin) using Boc-Lys(trifluoroacetyl)-AMC as substrate preincubated for 1 hr followed by substrate addition and measured after 2 hrs by fluorescence based micro plate reader analysis
Chain of Histone deacetylase 9 (Q9UKV0 whole entry): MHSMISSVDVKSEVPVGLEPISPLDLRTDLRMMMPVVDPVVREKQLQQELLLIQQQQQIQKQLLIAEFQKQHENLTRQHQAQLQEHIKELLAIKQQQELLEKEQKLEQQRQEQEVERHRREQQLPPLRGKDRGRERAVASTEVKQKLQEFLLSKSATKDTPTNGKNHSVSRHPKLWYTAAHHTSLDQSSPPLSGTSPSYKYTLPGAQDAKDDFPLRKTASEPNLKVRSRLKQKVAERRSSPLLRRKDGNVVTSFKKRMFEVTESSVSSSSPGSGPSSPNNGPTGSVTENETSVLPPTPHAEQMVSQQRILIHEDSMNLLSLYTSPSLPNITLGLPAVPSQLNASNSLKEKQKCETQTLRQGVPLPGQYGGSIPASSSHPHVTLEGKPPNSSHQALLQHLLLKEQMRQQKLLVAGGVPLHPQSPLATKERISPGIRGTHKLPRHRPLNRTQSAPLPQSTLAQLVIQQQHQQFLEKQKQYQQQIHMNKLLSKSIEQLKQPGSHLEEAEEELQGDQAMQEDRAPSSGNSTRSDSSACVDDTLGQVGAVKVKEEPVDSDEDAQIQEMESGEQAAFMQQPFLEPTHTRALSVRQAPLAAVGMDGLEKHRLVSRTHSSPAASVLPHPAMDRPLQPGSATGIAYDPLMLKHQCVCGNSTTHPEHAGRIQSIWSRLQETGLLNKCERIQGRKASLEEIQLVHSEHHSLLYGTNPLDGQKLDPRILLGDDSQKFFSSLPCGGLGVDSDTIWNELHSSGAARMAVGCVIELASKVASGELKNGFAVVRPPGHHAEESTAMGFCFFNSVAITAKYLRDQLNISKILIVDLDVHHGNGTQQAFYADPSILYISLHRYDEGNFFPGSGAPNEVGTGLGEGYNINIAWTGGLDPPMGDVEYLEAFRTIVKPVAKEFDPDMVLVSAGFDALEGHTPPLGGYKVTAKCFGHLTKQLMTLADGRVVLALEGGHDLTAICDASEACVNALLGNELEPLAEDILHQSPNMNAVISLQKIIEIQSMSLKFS

[10] = Toxicity in male C57BL/6 mouse implanted with mouse B16-F10 cells assessed as body weight loss at 50 mg/kg, po administered once daily for 14 days; assay type: organism-based; settings: in vivo, 336 h, time 14 day
Histone deacetylase 1 [11] = target: T1, Histone deacetylase 1 (Homo sapiens, UniProt Q13547); settings: dose 500.0 nM, time 3.0 hrs
T1 sequence (Q13547 whole entry): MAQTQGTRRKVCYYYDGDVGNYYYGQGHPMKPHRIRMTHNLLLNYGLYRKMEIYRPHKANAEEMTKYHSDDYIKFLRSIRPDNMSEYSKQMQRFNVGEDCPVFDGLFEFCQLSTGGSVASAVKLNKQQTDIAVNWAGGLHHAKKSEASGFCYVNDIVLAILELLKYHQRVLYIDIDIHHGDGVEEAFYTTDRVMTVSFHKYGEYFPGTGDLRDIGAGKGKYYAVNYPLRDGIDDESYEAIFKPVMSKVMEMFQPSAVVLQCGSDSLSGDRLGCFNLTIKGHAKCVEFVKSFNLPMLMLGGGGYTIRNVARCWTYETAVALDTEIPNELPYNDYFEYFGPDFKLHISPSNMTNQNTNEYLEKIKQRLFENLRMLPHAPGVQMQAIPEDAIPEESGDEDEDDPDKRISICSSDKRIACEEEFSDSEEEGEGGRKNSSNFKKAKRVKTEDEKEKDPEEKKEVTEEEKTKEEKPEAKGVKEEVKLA

4T1 [12] = assay: Antitumor activity against mouse 4T1 cells implanted in female BALB/c mouse model assessed as tumor growth inhibition co-administrated orally with olaparib as once daily dose via gavage for 14 days relative to control; assay type: functional; settings: route po; time 14 day
Histone deacetylase 5 = Histone deacetylase 5 (Homo sapiens, UniProt Q9UQL6); assay: Inhibition of recombinant HDAC5 (unknown origin) using Boc-Lys(trifluoroacetyl)-AMC as substrate preincubated for 1 hr followed by substrate addition and measured after 2 hrs by fluorescence based micro plate reader analysis
Chain of Histone deacetylase 5 (Q9UQL6 whole entry): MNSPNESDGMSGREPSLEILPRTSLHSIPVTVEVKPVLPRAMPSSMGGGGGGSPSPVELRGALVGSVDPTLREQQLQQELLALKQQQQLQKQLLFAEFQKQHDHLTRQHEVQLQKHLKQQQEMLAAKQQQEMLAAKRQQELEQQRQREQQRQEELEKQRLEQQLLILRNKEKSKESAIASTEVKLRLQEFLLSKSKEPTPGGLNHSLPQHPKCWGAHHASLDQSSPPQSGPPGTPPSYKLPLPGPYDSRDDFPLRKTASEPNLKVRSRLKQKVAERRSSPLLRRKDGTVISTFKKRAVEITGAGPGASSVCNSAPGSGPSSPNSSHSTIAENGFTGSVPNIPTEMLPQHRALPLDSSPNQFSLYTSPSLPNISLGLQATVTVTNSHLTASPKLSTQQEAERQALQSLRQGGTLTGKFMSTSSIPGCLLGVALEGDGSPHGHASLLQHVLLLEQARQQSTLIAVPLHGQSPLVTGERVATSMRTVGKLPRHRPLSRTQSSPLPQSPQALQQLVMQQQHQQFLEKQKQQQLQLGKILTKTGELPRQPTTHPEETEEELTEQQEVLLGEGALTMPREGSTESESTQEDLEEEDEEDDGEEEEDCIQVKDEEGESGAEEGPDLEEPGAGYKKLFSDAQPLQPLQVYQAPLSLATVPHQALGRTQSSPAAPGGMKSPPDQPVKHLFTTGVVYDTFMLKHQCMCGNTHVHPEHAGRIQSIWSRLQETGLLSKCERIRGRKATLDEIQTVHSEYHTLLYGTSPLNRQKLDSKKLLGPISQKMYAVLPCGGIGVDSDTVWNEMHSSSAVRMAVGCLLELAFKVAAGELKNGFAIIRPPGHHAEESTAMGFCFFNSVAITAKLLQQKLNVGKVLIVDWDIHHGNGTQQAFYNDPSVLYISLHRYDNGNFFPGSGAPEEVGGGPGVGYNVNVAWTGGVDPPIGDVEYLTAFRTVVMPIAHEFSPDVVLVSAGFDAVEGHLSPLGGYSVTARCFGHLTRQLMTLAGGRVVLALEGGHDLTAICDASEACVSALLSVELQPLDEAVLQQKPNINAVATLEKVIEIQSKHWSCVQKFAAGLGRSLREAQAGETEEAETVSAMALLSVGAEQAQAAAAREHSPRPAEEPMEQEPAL

[13] = target: Polyamine deacetylase HDAC10 (Homo sapiens, UniProt Q969S8); assay: Inhibition of recombinant HDAC10 (unknown origin) preincubated for 1 hr followed by substrate addition and measured after 2 hrs by fluorescence based micro plate reader analysis
Chain of Polyamine deacetylase HDAC10 (Q969S8 whole entry): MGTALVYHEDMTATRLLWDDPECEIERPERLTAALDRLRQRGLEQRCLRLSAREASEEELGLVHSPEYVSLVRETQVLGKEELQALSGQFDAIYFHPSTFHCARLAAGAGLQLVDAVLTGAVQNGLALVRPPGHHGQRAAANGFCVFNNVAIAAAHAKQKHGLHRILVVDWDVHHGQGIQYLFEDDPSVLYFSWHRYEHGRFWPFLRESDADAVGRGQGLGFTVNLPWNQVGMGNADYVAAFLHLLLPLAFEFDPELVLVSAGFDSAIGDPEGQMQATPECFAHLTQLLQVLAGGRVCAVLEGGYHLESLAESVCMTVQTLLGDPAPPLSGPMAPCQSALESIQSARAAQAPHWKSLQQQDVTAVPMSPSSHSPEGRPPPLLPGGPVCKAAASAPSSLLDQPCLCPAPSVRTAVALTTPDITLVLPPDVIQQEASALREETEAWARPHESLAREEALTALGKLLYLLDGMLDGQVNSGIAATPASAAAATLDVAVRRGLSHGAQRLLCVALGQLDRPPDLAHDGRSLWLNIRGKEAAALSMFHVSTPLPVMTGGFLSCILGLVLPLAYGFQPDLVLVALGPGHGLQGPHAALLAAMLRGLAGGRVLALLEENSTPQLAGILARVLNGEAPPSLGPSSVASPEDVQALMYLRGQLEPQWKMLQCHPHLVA

4T1 [14] = assay: Antitumor activity against mouse 4T1 cells implanted in female BALB/c mouse model assessed as decrease in PAPR1 expression in tumor co-administrated orally with olaparib as once daily dose via gavage for 14 days by immunohistochemistry analysis; assay type: functional, cell-based; settings: route po, time 14.0 day
Histone deacetylase 1 [15] = target: T1, Histone deacetylase 1; assay: Inhibition of recombinant HDAC1 (unknown origin) using Boc-Lys(acetyl)-AMC as substrate preincubated for 1 hr followed by substrate addition and measured after 2 hrs by fluorescence based micro plate reader analysis
4T1 [16] = assay: Antitumor activity against mouse 4T1 cells implanted in female BALB/c mouse model assessed as induction of DNA damage by measuring increase in gamma-H2AX expression in tumor co-administrated orally with olaparib as once daily dose via gavage for 14 days by Western blot analysis; assay type: functional, cell-based; settings: route po, time 14.0 day
Mus musculus [17] = assay: Immunomodulatory activity in male C57BL/6 mouse model implanted with mouse B16-F10 cells assessed as increase in CD3+ CD8+ T cells in tumor at 50 mg/kg, po administered once daily for 14 days by flow cytometric analysis (reference value: 3.2 %); assay type: functional; settings: time 14 day
Mus musculus [18] = assay: In vivo induction of PD-L1 degradation in male C57BL/6 mouse model implanted with mouse B16-F10 cells assessed as decrease in PD-L1 protein expression in tumor at 50 mg/kg, po administered once daily via gavage for 14 days by DAPI staining based immunofluorescence analysis; assay type: functional, organism-based; settings: time 14.0 day
[19] = target: Protein deacetylase HDAC6 (Homo sapiens, UniProt Q9UBN7); assay: Inhibition of recombinant full length human HDAC6 using Boc-Lys(acetyl)-AMC as substrate preincubated for 1 hr followed by substrate addition and measured after 2 hrs by fluorescence based micro plate reader analysis
Chain of Protein deacetylase HDAC6 (Q9UBN7 whole entry): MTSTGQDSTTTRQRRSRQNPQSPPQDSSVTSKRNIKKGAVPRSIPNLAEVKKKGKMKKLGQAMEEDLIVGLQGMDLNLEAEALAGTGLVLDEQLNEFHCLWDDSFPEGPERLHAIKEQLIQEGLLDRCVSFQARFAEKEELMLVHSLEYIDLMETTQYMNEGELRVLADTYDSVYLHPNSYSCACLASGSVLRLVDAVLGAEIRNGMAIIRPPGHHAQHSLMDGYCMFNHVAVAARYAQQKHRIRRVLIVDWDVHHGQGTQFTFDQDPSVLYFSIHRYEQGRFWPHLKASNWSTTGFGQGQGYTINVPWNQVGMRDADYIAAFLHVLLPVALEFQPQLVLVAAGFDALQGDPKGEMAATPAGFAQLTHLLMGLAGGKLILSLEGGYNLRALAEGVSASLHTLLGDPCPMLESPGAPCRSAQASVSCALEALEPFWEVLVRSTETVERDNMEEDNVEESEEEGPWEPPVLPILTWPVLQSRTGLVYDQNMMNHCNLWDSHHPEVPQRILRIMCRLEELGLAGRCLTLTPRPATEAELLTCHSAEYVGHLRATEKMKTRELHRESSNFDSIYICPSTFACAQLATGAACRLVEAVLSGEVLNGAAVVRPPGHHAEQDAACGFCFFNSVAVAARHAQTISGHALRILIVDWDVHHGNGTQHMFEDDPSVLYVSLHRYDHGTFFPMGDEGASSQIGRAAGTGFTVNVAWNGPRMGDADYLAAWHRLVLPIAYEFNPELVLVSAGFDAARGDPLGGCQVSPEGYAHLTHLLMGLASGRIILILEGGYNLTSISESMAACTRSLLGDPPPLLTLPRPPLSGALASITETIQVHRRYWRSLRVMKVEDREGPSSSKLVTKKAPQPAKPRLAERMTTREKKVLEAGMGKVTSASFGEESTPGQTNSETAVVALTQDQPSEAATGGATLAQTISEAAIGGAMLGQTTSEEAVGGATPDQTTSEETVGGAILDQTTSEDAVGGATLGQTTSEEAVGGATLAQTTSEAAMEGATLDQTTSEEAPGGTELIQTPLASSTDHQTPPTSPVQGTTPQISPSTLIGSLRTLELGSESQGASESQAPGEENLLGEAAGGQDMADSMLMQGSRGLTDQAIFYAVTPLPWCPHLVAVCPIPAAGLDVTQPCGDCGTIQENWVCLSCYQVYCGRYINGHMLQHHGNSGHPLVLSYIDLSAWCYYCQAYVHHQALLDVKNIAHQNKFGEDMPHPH

[20] = Tmax in male Sprague-Dawley rat at 20 mg/kg, po measured after 12 hrs by LC-MS/MS analysis; assay type: ADME, organism-based; settings: in vivo
[21] = Toxicity in male C57BL/6 mouse implanted with mouse B16-F10 cells assessed as histopathological changes in kidney at 50 mg/kg, po co-administered with NP-19 as once daily dosage via gavage for 14 days by HandE staining based microscopic analysis; assay type: organism-based; settings: in vivo, 336 h, time 14 day
[22] = Toxicity in male C57BL/6 mouse implanted with mouse B16-F10 cells assessed as histopathological changes in heart at 50 mg/kg, po co-administered with NP-19 as once daily dosage via gavage for 14 days by HandE staining based microscopic analysis; assay type: organism-based; settings: in vivo, 336 h, time 14 day
B16-F10 [23] = assay: Induction of apoptosis in mouse B16-F10 cells assessed as increase in apoptotic cells at 20 uM incubated for 48 hrs by Annexin V-FITC/PI staining based flow cytometric analysis relative to control; assay type: functional
B16-F10 [24] = assay: Downregulation of PARP1 expression in mouse B16-F10 cells at 2 uM incubated for 24 hrs by Western blot analysis; assay type: functional, cell-based
[25] = MRT (0 to infinity) in male Sprague-Dawley rat at 2 mg/kg, iv measured after 12 hrs by LC-MS/MS analysis; assay type: ADME, organism-based; settings: in vivo
4T1 [26] = assay: Downregulation of PARP1 expression in mouse 4T1 cells at 2 uM incubated for 24 hrs by Western blot analysis; assay type: functional, cell-based
B16-F10 [27] = assay: Synergistic antitumor activity against mouse B16-F10 cells implanted in male C57BL/6 mouse model assessed as tumor growth inhibition at 50 mg/kg, po co-administered with NP-19 as once daily dosage via gavage for 14 days relative to control; assay type: functional; settings: B16-F10, 336 h, time 14 day, read-out: TGI
4T1 [28] = assay: Antitumor activity against mouse 4T1 cells implanted in female BALB/c mouse model assessed as decrease in PAPR1 expression in tumor co-administrated orally with olaparib as once daily dose via gavage for 14 days by Western blot analysis; assay type: functional, cell-based; settings: route po, time 14.0 day
[29] = AUMC (0 to t) in male Sprague-Dawley rat at 20 mg/kg, po measured after 12 hrs by LC-MS/MS analysis; assay type: ADME, organism-based; settings: in vivo

- IC50 (Histone deacetylase 4): > 10 µM
- VRT [2]: 0.664 hr2
- concentration at 12 h [7]: 0.475 ng/mL
- VRT [8]: 12.987 hr2
- IC50 (Histone deacetylase 9): > 10 µM
- inhibition (Histone deacetylase 1 [11]): 14%
- IC50 (Histone deacetylase 5): > 10 µM
- IC50 [13]: > 10 µM
- IC50 (Histone deacetylase 1 [15]): 6.8 µM
- IC50 [19]: 8.2 µM
- Tmax [20]: 30 min
- MRT inf [25]: 44.5 min
- AUMCt [29]: 34704.993 hr.hr.ug/L
Compound: CCCNNC(=O)c1ccc(Cn2c3ccccc3c3c(-c4ccccn4)nc4ccccc4c32)cc1
- Activity (B16-F10 [1]): inactive
- Activity (B16-F10 [3]): 35.33%
- Activity [4]: Not active; Ctsb-Mediated Lysosomal Degradation Mechanism Is Observed
- Activity (4T1 [5]): Active
- TGI (4T1 [6]): 41%
- Activity (4T1 [9]): Active
- Activity [10]: Non-toxic
- TGI (4T1 [12]): 91%
- Activity (4T1 [14]): Active
- Activity (4T1 [16]): Active
- Activity (Mus musculus [17]): 25%
- Activity (Mus musculus [18]): Active
- Activity [21]: Non-toxic
- Activity [22]: Non-toxic
- Activity (B16-F10 [23]): 60.7%
- Activity (B16-F10 [24]): Active
- Activity (4T1 [26]): Active
- inhibition in vivo at 50 mg/kg (B16-F10 [27]): 80%
- Activity (4T1 [28]): Active

From ChEMBL document CHEMBL6096732 (J Med Chem, 2025)
